A value given as a limit tells only on which side of the number the result lay.

This experiment concerns the target T1, USP28 (His-tagged USP28-FL-mammalian) (Homo sapiens, UniProt Q96RU2).
T1 construct: Expression of USP28 (1-1077)-TEV-6*His (pTT5 vector) was carried out in Expi293f cells; made in house; host or cells: Expi293F cells (pTT5 vector)
T1 sequence (Q96RU2 1-1077): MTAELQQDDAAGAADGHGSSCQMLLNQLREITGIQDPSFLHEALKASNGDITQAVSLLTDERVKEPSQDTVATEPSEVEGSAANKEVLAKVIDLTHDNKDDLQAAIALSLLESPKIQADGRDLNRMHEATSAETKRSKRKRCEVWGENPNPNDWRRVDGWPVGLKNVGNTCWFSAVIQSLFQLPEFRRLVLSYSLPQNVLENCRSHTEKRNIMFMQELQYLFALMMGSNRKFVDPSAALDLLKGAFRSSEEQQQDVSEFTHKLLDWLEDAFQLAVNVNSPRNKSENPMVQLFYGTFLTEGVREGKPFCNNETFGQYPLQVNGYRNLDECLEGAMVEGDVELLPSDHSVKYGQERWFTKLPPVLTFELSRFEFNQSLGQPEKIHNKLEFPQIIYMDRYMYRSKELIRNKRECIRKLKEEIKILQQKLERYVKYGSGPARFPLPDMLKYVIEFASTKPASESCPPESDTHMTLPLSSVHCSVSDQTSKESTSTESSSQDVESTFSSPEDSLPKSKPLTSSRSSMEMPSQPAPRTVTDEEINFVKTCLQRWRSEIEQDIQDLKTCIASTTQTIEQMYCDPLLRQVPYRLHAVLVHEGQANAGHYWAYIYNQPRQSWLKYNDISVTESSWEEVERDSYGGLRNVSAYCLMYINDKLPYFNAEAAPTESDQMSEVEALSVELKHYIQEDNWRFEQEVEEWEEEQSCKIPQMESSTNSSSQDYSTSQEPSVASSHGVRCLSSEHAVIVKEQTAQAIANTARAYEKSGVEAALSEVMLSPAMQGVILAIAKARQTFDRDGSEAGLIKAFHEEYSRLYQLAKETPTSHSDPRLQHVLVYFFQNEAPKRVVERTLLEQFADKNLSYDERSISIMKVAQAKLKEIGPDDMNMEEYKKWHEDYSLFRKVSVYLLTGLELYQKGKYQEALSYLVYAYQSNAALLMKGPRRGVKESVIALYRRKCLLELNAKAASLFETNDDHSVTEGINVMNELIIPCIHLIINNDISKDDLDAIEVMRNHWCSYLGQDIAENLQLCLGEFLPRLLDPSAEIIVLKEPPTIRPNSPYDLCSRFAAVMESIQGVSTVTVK
As to the kind of experiment: Ubiquitin-Rhodamine 110 Assay for USP28 Activity, Example A-1(a). To be noted: Ubiquitin-Rhodamine 110 biochemical assay, read-out: USP28 A-1(a) IC50 range. In kind it is biochemical. Here is the method: Example A-1(a): Biochemical Assay: Ubiquitin-Rhodamine 110 Assay for USP28 Activity
The assay was performed in a final volume of 9 μL in assay buffer containing 20 mM Tris-HCl (pH 8.0, (1M Tris-HCl, pH 8.0 solution; Corning 46-031-CM)), 3 mM BME (2-Mercaptoethanol; Sigma 63689-25ML-F), 0.03% BGG (0.22 μM filtered, Sigma, G7516-25G), and 0.01% Triton X-100 (Sigma, T9284-10L). Nanoliter quantities of 10-point, 3-fold serial dilution in DMSO was pre-dispensed into 1536 assay plates (Corning, #3724BC) for a final test concentration of 25 μM to 1.3 nM, top to lowest dose, respectively. Enzyme USP28, construct His-tagged USP28-FL-mammalian, (protein expression and purification procedure described below). Concentration and incubation times were optimized for the maximal signal-to-background while maintaining initial velocity conditions at a fixed substrate concentration. The final concentration of the enzyme in the assay was […]. Final substrate (Ub-Rh110; Ubiquitin-Rhodamine 110, UbiQ-126) concentration was 25 nM with [Ub-Rh110]<<Km. 3 μL of 2× enzyme was added to assay plates (pre-stamped with compound) preincubated with […] for 30 minutes and then 3 μL of 2× Ub-Rh110 was added to assay plates. Plates were incubated for 45 minutes at room temperature before addition of 3 μL of stop solution (final concentration of 10 mM citric acid (Sigma, 251275-500G)). Fluorescence was read on the Envision (Excitation at 485 nm and Emission at 535 nm; Perkin Elmer) or on the PheraSTAR (Excitation at 485 nm and Emission at 535 nm; BMG Labtech).
Procedure for the Protein expression and purification for construct His-tagged USP28-FL-mammalian
Expression of USP28 (1-1077)-TEV-6*His (pTT5 vector) was carried out in Expi293f cells (sequence derived from uniprot ID: Q96RU2-1). Cells were re-suspended in lysis buffer B 50 mM Bicine, pH 8.0, 20 mM NaCl, 5% glycerol, 0.1% CHAPS, 5 mM β-ME, 1 mM PMSF, 1 ug/ml Leupeptin, 1 ug/ml Pepstatin) and lysed by sonication. Insoluble material was removed by centrifugation and the supernatant was loaded onto a Ni-NTA column (GE Healthcare) equilibrated with Ni Buffer A (50 mM Bicine, pH 8.0, 20 mM NaCl, 5% glycerol, 0.1% CHAPS, 5 mM R-ME.) and washed with Ni Buffer A+20 mM imidazole until A280 reached baseline. The protein was eluted with Ni Buffer B (50 mM Bicine, pH 8.0, 20 mM NaCl, 5% glycerol, 0.1% CHAPS, 5 mM β-ME, 300 mM imidazole.). The protein was further purified using a Superdex™ 200 10/300 GL column (GE Healthcare) equilibrated with 50 mM Bicine, pH 8.0, 20 mM NaCl, 5% glycerol, 0.1% CHAPS, 5 mM β-ME. The protein was concentrated to 2.5 mg ml-1, flash-frozen in liquid N2 and stored at −80° C.
For assay formats Example A-1(a), A-1(b), and A-2, data were reported as percent inhibition compared with control wells based on the following equation: % inh=1−((FLU−AveLow)/(AveHigh−AveLow)) where FLU=measured Fluorescence, AveLow=average Fluorescence of no enzyme control (n=16), and AveHighh=average Fluorescence of DMSO control (n=16). IC50 values were determined by curve fitting of the standard 4 parameter logistic fitting algorithm included in the Activity Base software package: IDBS XE Designer Model 205. Data is fitted using the Levenburg Marquardt algorithm.
For the compound `CN[C@H]1CN(c2ccc3c(n2)CC[C@H](NC(=O)c2sc4nc(C)cnc4c2N)C3)C[C@@H]1OC` [Example 490, 7-amino-N-[(6S)-2-[(3S,4S)-3-methoxy-4-(methylamino)pyrrolidin-1-yl]-5,6,7,8-tetrahydroquinolin-6-yl]-3-methylthieno[2,3-b]pyrazine-6-carboxamide], the IC50 lay in the range of 50 to 200 nM.

For `CO[C@@H]1CN(c2ccc3c(n2)CC[C@H](NC(=O)c2sc4nc(C)cnc4c2N)C3)C[C@@H]1N` [Example 491, 7-amino-N-[(6S)-2-[(3S,4R)-3-amino-4-methoxypyrrolidin-1-yl]-5,6,7,8-tetrahydroquinolin-6-yl]-3-methylthieno[2,3-b]pyrazine-6-carboxamide], the IC50 lay in the range of 50 to 200 nM.

On to `CO[C@H]1CN(c2ccc3c(n2)CC[C@H](NC(=O)c2sc4nc(C)cnc4c2N)C3)C[C@H]1N` [Example 492, 7-amino-N-[(6S)-2-[(3R,4S)-3-amino-4-methoxypyrrolidin-1-yl]-5,6,7,8-tetrahydroquinolin-6-yl]-3-methylthieno[2,3-b]pyrazine-6-carboxamide], for which the IC50 is 50 to 200 nM.

As to `CO[C@@H]1CCCN(c2ccc3c(n2)CC[C@H](NC(=O)c2sc4nc(C)ccc4c2N)C3)C[C@H]1N` [Example 493, 3-amino-N-[(6S)-2-[(3R,4R)-3-amino-4-methoxyazepan-1-yl]-5,6,7,8-tetrahydroquinolin-6-yl]-6-methylthieno[2,3-b]pyridine-2-carboxamide], the concentration for half-maximal inhibition (IC50) was in the range of 1 to 50 nM.

For the compound `CO[C@H]1CCCN(c2ccc3c(n2)CC[C@H](NC(=O)c2sc4nc(C)ccc4c2N)C3)C[C@@H]1N` [Example 494, 3-amino-N-[(6S)-2-[(3S,4S)-3-amino-4-methoxyazepan-1-yl]-5,6,7,8-tetrahydroquinolin-6-yl]-6-methylthieno[2,3-b]pyridine-2-carboxamide], the concentration for half-maximal inhibition (IC50) lay within 1 to 50 nM.

Turning to `CO[C@@H]1CCCN(c2ccc3c(n2)CC[C@H](NC(=O)c2sc4nc(C)ccc4c2N)C3)C[C@@H]1N` [Example 495, 3-amino-N-[(6S)-2-[(3S,4R)-3-amino-4-methoxyazepan-1-yl]-5,6,7,8-tetrahydroquinolin-6-yl]-6-methylthieno[2,3-b]pyridine-2-carboxamide], the IC50 lay in the range of 50 to 200 nM.

Consider `CN[C@H]1CN(c2ccc3c(n2)CC[C@H](NC(=O)c2sc4nc(C)cnc4c2N)C3)C[C@H]1OC` [Example 496, 7-amino-N-[(6S)-2-[(3R,4S)-3-methoxy-4-(methylamino)pyrrolidin-1-yl]-5,6,7,8-tetrahydroquinolin-6-yl]-3-methylthieno[2,3-b]pyrazine-6-carboxamide], for which the IC50 lay in the range of 200 to 2000 nM.

In the case of `CN[C@@H]1CN(c2ccc3c(n2)CC[C@H](NC(=O)c2sc4nc(C)cnc4c2N)C3)C[C@@H]1OC` [Example 497, 7-amino-N-[(6S)-2-[(3S,4R)-3-methoxy-4-(methylamino)pyrrolidin-1-yl]-5,6,7,8-tetrahydroquinolin-6-yl]-3-methylthieno[2,3-b]pyrazine-6-carboxamide], the IC50 is 200 to 2000 nM.

On to `Cc1cnc2c(N)c(C(=O)N[C@H]3CCc4nc(N5C[C@H](N)C6(C5)OCCO6)ccc4C3)sc2n1` [Example 498, 7-amino-N-[(6S)-2-[(9S)-9-amino-1,4-dioxa-7-azaspiro[4.4]nonan-7-yl]-5,6,7,8-tetrahydroquinolin-6-yl]-3-methylthieno[2,3-b]pyrazine-6-carboxamide], for which the IC50 is 200 to 2000 nM.

`Cc1cnc2c(N)c(C(=O)N[C@H]3CCc4nc(N5C[C@@H](N)C6(C5)OCCO6)ccc4C3)sc2n1` [Example 499, 7-amino-N-[(6S)-2-[(9R)-9-amino-1,4-dioxa-7-azaspiro[4.4]nonan-7-yl]-5,6,7,8-tetrahydroquinolin-6-yl]-3-methylthieno[2,3-b]pyrazine-6-carboxamide]: the IC50 was 200 to 2000 nM.

As for `COC[C@@H]1CN(c2ccc3c(n2)CC[C@H](NC(=O)c2sc4cnccc4c2N)C3)C[C@@H]1N` [Example 500, 3-amino-N-[(6S)-2-[(3R,4R)-3-amino-4-(methoxymethyl)pyrrolidin-1-yl]-5,6,7,8-tetrahydroquinolin-6-yl]thieno[2,3-c]pyridine-2-carboxamide], the IC50 is over 2000 nM.

`CO[C@H]1CCCN(c2ccc3c(n2)CC[C@H](NC(=O)c2sc4nc(C)ccc4c2N)C3)C[C@H]1N` [Example 501, 3-amino-N-[(6S)-2-[(3R,4S)-3-amino-4-methoxyazepan-1-yl]-5,6,7,8-tetrahydroquinolin-6-yl]-6-methylthieno[2,3-b]pyridine-2-carboxamide]: the IC50 fell in the range of 200 to 2000 nM.

For the compound `CN[C@H]1CN(c2ccc3c(n2)CC[C@H](NC(=O)c2sc4nc(C)ccc4c2N)C3)C[C@]12CCCCO2` [Example 502, 3-amino-6-methyl-N-[(6S)-2-[(4S,5R)-4-(methylamino)-6-oxa-2-azaspiro[4.5]decan-2-yl]-5,6,7,8-tetrahydroquinolin-6-yl]thieno[2,3-b]pyridine-2-carboxamide], the IC50 lay within 50 to 200 nM.

Regarding `CN[C@@H]1CN(c2ccc3c(n2)CC[C@H](NC(=O)c2sc4nc(C)ccc4c2N)C3)C[C@@]12CCCCO2` [Example 503, 3-amino-6-methyl-N-[(6S)-2-[(4R,5S)-4-(methylamino)-6-oxa-2-azaspiro[4.5]decan-2-yl]-5,6,7,8-tetrahydroquinolin-6-yl]thieno[2,3-b]pyridine-2-carboxamide], the IC50 was in the range of 50 to 200 nM.

As for `CO[C@H]1CN(c2ccc3c(n2)CC[C@H](NC(=O)c2sc4cnccc4c2N)C3)C[C@@H]1N` [Example 504, 3-amino-N-[(6S)-2-[(3S,4S)-3-amino-4-methoxypyrrolidin-1-yl]-5,6,7,8-tetrahydroquinolin-6-yl]thieno[2,3-c]pyridine-2-carboxamide], the IC50 is over 2000 nM.

The term IC50 denotes the concentration that gives 50% inhibition.

The values above are taken from patent US12162888B2, “Carboxamides as ubiquitin-specific protease inhibitors” (Valo Early Discovery, Inc., priority 2018, dated 2024).
